According to patent publication US20260209242A1, “CAMPTOTHECIN DERIVATIVE, PHARMACEUTICAL COMPOSITION, AND PREPARATION METHOD AND USE THEREFOR” (priority 2022, published 2026):
pIC50: −log10 of the molar value. ≈ marks a conversion by molar mass, not a printed value.

Experiments:
[1] = Kinetic solubility test in PBS 7.4; type: physicochemical
Protocol: 10 mM stock solutions of the test substances 6-2, 11-2, 17-2, Dxd, and the control drugs progesterone and diclofenac were prepared using DMSO respectively.
15 μL of 10 mM stock solution of each of the test substances was added to a corresponding position of a corresponding 96-well plate in a specified sequence. 485 μL of the PBS 7.4 was added to a corresponding vial on a sample plate. The experiment was run in duplicate. Each vial was additionally provided with a stirring rod and was plugged. Then, the sample plate was transferred in a thermostatic mixer, and oscillated at a revolving speed of 1,100 rpm at 25° C. for 2 h. 2 h later, the plug was removed, the stirring rod was attracted away with a large magnet, and then the sample was transferred from the sample plate to the filter plate. Negative pressure was generated using a vacuum pump to filter the sample. 5 μL of filtrate and 5 μL of blank DMSO were transferred to another sample plate, and then 490 μL of internal standard water (acetonitrile:water=1:1) containing the internal standard was added. Depending on peak shapes, a certain proportion of internal standard water may be used to dilute the sample diluent to obtain better peak shapes.
6 μL was transferred from the 10 mM DMSO stock solution plate to a blank plate, and was prepared into a 300 μM standard substance solution with addition of 194 μL of DMSO. 5 μL was transferred from the 300 μM standard substance solution plate to still another blank plate, and then 5 μL of blank buffer and 490 μL of the internal standard water containing the internal standard (acetonitrile:water=1:1) were added until a final concentration of the standard substance solution was 3 μM.
An injection plate was transferred on an injection tray of an autosampler to evaluate the sample by LC/MS analysis.
All calculations were performed using Microsoft Excel.
The sample filtrate was analyzed and quantified by qualitative and quantitative LC/MS of standard substance peaks at known concentrations. The calculation formula for the solubility values of the reference drugs and the test substances are as follows:
[Sample] is the compound concentration, DFSample refers to the sample dilution factor, [STD] is the standard substance concentration of the compound, AREAStd is the standard substance peak area of the compound, and AREASample is the peak area of the compound sample.

[2] = Pharmacokinetic test in SD rats; settings: male, Sprague-Dawley (SD), rat, in vivo, iv, 2 mg/kg
Protocol: After a single intravenous injection (dose: 2 mpk) of the compounds 6-2, 11-2, 17-2, and Dxd into male SD rats (blood collection time points: 0.083 h, 0.25 h, 0.5 h, 1 h, 2 h, 4 h, 8 h, and 24 h after IV administration, totaling 8 blood collection time points), average pharmacokinetic parameters in the plasma are as shown in Table 5: […]

[3] = Stability of compounds in human plasma; type: in vitro ADME; settings: 5 μmol/L
CYP1A2 = molecular target: T1, CYP1A2 (Homo sapiens, UniProt P05177); assay: Inhibition on human hepatomicrosomes CYP1A2
T1 sequence (P05177 1-516): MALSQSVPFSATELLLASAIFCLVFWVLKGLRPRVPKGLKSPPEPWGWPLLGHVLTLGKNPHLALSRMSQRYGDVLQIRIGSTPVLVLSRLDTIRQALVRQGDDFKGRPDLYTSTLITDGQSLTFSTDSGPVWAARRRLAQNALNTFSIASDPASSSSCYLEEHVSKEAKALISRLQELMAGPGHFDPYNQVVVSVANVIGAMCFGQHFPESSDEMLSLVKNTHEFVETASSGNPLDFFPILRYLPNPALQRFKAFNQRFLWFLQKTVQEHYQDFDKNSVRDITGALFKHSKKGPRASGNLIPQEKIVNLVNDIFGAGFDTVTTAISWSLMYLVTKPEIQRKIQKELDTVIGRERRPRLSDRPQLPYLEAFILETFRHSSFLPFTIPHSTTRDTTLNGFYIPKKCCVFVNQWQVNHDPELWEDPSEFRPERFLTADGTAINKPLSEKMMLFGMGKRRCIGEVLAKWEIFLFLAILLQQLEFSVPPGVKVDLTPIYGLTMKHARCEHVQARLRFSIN

CC[C@@]1(O)C(=O)OCc2c1cc1n(c2=O)Cc2c-1nc1cc(F)c(C)c3c1c2[C@@H](NC(=O)[C@@H](O)C1CC1)CCC3 [Compound 11-2, (S)-2-cyclopropyl-N-((1S,10S)-10-ethyl-6-fluoro-10-hydroxy-5-methyl-11,14-dioxo-1,2,3,4,10,11,14,16-octahydro-13H-cyclohepta[de]pyrano[3′,4′:6,7]indolizino[1,2-b]quinolin-1-yl)-2-hydroxyacetamide]
solubility in the PBS 7.4 compared with Dxd (in words) [1]: significantly better solubility in the PBS 7.4 than Dxd
solubility at 2 h ([1]; 25 °C, pH 7.4, aqueous buffer, kinetic from dmso stock): 34 µM (≈ 18.6 µg/mL)
AUC(0-inf) [2]: 465 ng·h/mL
AUC(0-t) [2]: 460 ng·h/mL
C0 [2]: 848 ng/mL
Vd [2]: 3.01 L/kg
clearance [2]: 72.7 mL/min/kg
half-life [2]: 37.8 min
Residual percentage (%) 4 h [3]: 93.40%
pIC50 (CYP1A2): < 4.52
